In patent publication US20090156657A1, “ANTI-INFLAMMATORY COMPOSITION” (Ajinomoto Co., Inc., priority 2006, published 2009):

Legend:
[1] = system: VCAM-1; experiment: VCAM-1 protein expression on HAEC cell membrane (immunostaining); format: cell-based, human; conditions: 0.1-10 μM 24 h, 25 mM glucose 4 h, FIG. 4A
Description: HAEC cells proliferated to confluence in a 96 well microplate were pre-incubated with 0.1-10 μM serotonin derivative for 24 hours, and stimulated with 25 mM glucose for 4 hours. The cell layer was washed with Hanks solution, and then anti-VCAM-1 monoclonal antibody (Becton Dickinson) was added and the cells were incubated at 37° C. for 1 hour. After washing, the cells were incubated with secondary antibody (peroxidase-labeled anti-mouse IgG goat F(ab′)2 fragment; Cappel) for 1 hour. A color development substrate (o-phenylenediamine dihydrochloride) was added and, about 30 minutes later (room temperature), the absorbance (492 nm) of each well was quantified with a microplate reader. The MCP-1 concentration of the medium was quantified with Human MCP-1 Immunoassay Kit (BioSource International).

[2] = system: U-937 monocyte cells / HAEC; experiment: Monocyte (U-937) adhesion to HAEC cells; format: cell-based, human; conditions: HAEC pre-incubated 5 or 10 μM 24 h, 25 mM glucose 4 h; FIG. 5
Description: HAEC cells proliferated to confluence in a 24 well microplate were pre-incubated with CS and FS (5 or 10 μM each) for 24 hours and stimulated with 25 mM glucose for 4 hours. The cell layer was washed with Hanks solution, and then a suspension (1×10^6/mL, 200 μL) of U-937 monocyte cells (purchased from ATCC) was added, and the mixture was incubated at 37° C. for 30 minutes. After washing again, the cells were fixed with 1% para-formaldehyde and the number of U-937 cells attached onto HAEC was counted under a microscope (20 fields). The experiment was performed 3 times and the results are shown as an average value thereof. An experiment using fluorescence-labeled U-937 cells was also performed. To be specific, U-937 cells were incubated (37° C., 1 hour) in the presence of 10 μM 2′,7′-bis(2-carboxyethyl)-5(6)-carboxyfluorescein acetoxymethylester (BCECF-AM, Molecular Probes) and washed by centrifugation. Fluorescence-labeled U-937 cells (1×10^6/mL) were added to HAEC cells, and the mixture was incubated at 37° C. for 1 hour. The floating U-937 cells were removed, the plate was washed with PBS buffer and treated with 1% Triton X for 2 hours. The fluorescence amount of the attached cells was quantified (Ex. 503 nm, Em. 525 nm) using a fluorescence plate reader (Bio-Rad, Fluoromark).

[3] = system: MCP-1 mRNA; experiment: MCP-1 mRNA expression in HAEC by real-time PCR; format: cell-based, human; conditions: 10 μM 24 h, 25 mM glucose 3 h, GAPDH internal standard, FIG. 3B
Description: (§1) HAEC cells pre-treated with 10 μM of CS or FS for 24 hours were stimulated with 25 mM glucose for 3 hours, and total RNA was extracted with Isogenkit (NIPPON GENE CO., LTD.). From 1 μg of RNA, cDNA was synthesized using 100 U/mL of reverse transcriptase (TAKARA BIO INC.) and 0.1 μM of oligo (dT)-adapter (TAKARA BIO INC.) (total volume of reaction mixture; 50 μL) (42° C., 40 minutes). Real-time PCR was performed using 7300 Real Time PCR system (Applied Biosystems Japan Ltd.) and the PCR product was detected by SYBER Green I.
(§2) PCR reaction composition (RT-PCRkit, TAKARA BIO INC.): 12.5 μL Premix Ex Taq, 2.5 μL SYBER Green I, synthesis primer, ROX reference dye, cDNA (corresponding to 20 ng of total RNA), final reaction volume; 25 μL
(§3) Primers having the following sequences were used.
(§4) PCR was conducted under the following conditions.
(§5) thermal denaturation: at 95° C. for 15 seconds, extension reaction: 40 cycles (3 seconds at 95° C., 31 seconds at 60° C.)
(§6) Expression amounts of VCAM-1 and MCP-1 mRNA were calculated using GAPDH as the internal standard.

[4] = system: large intestine tissue of IBD model mice; experiment: IBD model mouse: large intestine histopathology (PAS staining); format: in vivo; conditions: vs Control group, FIG. 14
Excerpt: At the end of the test described in Example 10, the large intestine (caecum—anus) was cut into about 1 cm pieces from the center to the anus side to give 3 sections in total. One of them was fixed with 10% formalin solution and two were frozen in liquid nitrogen. The large intestine fixed with formalin was embedded in paraffin, and sliced to give transversely sectioned specimens. The specimens were stained by a PAS (Periodic acid Schiff) staining method, and histopathological images were observed. On the other hand, total RNA was extracted from the frozen large intestine tissue with ISOGEN (NIPPON GENE CO., LTD.) Total RNA (2 μg) was subjected to a reverse transcription reaction using a SYBR ExScript™ RT-PCR kit (TaKaRa) and, using this as a template, quantitative realtime PCR was performed using IL-1β, TNF-α and GAPDH. The primers used for the analysis were as follows.

[5] = system: NF-κB (p65); experiment: Activation of NF-κB (nuclear translocation of p65) in HAEC stimulated with high glucose; format: cell-based, human; conditions: pre-treatment 5 and 10 μM 24 h, 25 mM glucose 2 h, FIG. 1
Description: In the present invention, the term “suppression of NF-κB activation” means suppression of the translocation of NF-κB into the nucleus. The suppression of the translocation of NF-κB into the nucleus can be confirmed by the method described in Example 1. To be specific, a test substance is added to a culture medium of human aortic endothelial cells, the cells are incubated for a predetermined time, the nucleus is extracted from the aforementioned cells stimulated with glucose, and activated NF-κB (p65) translocated into the nucleus is detected. Using the cells before glucose stimulation, wherein NF-κB is not activated, as a negative control and the cells stimulated with glucose and free of addition of a test substance as a positive control, when the detection level of the aforementioned p65 is closer to the negative control than to the positive control, NF-κB activation is evaluated to have been suppressed.
Human aortic endothelial cells (HAEC) were purchased from Clonetics Corp, and the cells cultured for 3-4 passages (37° C., under 5% carbon dioxide gas atmosphere) were used for the experiment. […] Nucleus was extracted from the cells using Nuclear Extract Kit (Active Motif), and then the activated NF-κB (p65) translocated into the nucleus was detected by TransAM NF-κB p65 Kit (Active Motif).

[6] = system: VCAM-1 mRNA; experiment: VCAM-1 mRNA expression in HAEC by real-time PCR; format: cell-based, human; conditions: 10 μM 24 h, 25 mM glucose 3 h, GAPDH internal standard, FIG. 3A
Description: as §1, §2, §3, §4, §5, §6

COc1cc(/C=C/C(=O)NCCc2c[nH]c3ccc(O)cc23)ccc1O [FS, N-feruloyl serotonin]
VCAM-1 expression on the cell membrane [1]: suppressed the induction of their expressions in a dose-dependent manner
number of U-937 cells attached onto HAEC (cell count) [2]: decreased the number of attached cells in a serotonin derivative dose-dependent manner
expression amount of MCP-1 mRNA [3]: significantly suppressed the increase
number of normal goblet cells [4]: increased number of normal goblet cells
thickening of the large intestine mucosal epithelium [4]: suppressed thickening
nuclear translocation of p65 (activation of NF-κB) [5]: significantly suppressed
expression amount of VCAM-1 mRNA [6]: significantly suppressed the increase
